These results are taken from paper PMC7503713, “GANT61 Reduces Hedgehog Molecule (GLI1) Expression and Promotes Apoptosis in Metastatic Oral Squamous Cell Carcinoma Cells” (International Journal of Molecular Sciences, 2020).

Where “and” joins values, the source holds several entries; their conditions need not be identical. Equal values may be shown once.

Assay type in all cases: cell-based, human
One test relates to HCT-116. Kind of test: alamarBlue cytotoxicity assay, HCT-116. The conditions noted are these: HCT-116, alamarBlue, 72 h of incubation. How it is done:
(§1) To assess the cytotoxicity of the GLI inhibitor GANT61 (Sigma-Aldrich, St. Louis, MO, USA) in tumor and non-tumor cell lines, an alamarBlue assay (Sigma-Aldrich Chemical Co, St. Louis, MO, USA) was performed after 72 h of exposure to the inhibitor, as described by Ahmed et al., 1994 [46]. Cells were distributed on 96-well plates at a density of 7 × 10^4 cells/mL for adhered cells, and 3 × 10^5 cells/mL for cells in suspension. All tested compounds were dissolved in DMSO, added to wells containing 100 µL of cells in complete medium, and then incubated for 72 h. Eight concentrations of GANT61 (0.19 to 50 µg/mL), Doxorubicin (Laboratory IMA S.A.I.C., Buenos Aires, Argentina), and 5-Fluorouracil (5-FU, Sigma-Aldrich, St. Louis, MO, USA), both used as positive controls at concentrations ranging from 0.03 to 5 µg/mL, were added to respective wells. Cells treated with the vehicle (0.5% DMSO) used to dilute the tested compounds were used as negative controls. Before the end of the incubation period (4 h for cell lines and 24 h for PBMCs), 20 µL of alamarBlue stock solution (resazurin, Sigma-Aldrich, St. Louis, MO, USA) was added to each well. Absorbance was measured at 570 nm (reduced) and 595 nm (oxidized) wavelengths, using a Spectramax 190 plate reader (Molecular Devices; Sunnyvale, CA, USA).
(§2) Statistical analyses were performed, using GraphPad Prism v. 6.03 (GraphPad Software, Inc., San Diego, USA). Data were analyzed according to distribution along the normal Gaussian curve. IC50 values were obtained through non-linear regression, using results from three independent experiments carried out in duplicate. Differences between groups resulting from in vitro assays were evaluated by ANOVA (analysis of variance) testing, followed by the Student–Newman–Keuls test. This study considered a level of significance, corresponding to alpha (α) or “p” value, when results were less than or equal to 5%.

The next test has as its system CAL27. Put plainly: alamarBlue cytotoxicity assay, CAL27. As for the experimental part:
as §1, §2

The next test has as its system HSC3. Kind of test: alamarBlue cytotoxicity assay, HSC3. The conditions noted are these: 72 h of incubation. As for the experimental part:
For cytotoxicity assessments, this study primarily focused on the highly metastatic HSC3 OSCC cell line (JCRB Cell Bank, Osaka, Japan) and employed other histological tumor cell types and non-tumor cells (Supplementary Table S1). HSC3 cells were placed in flasks ([…], 250 mL volume) containing DMEM medium (Gibco, Lif Technologies, Gaithesburg, MD, USA) supplemented with 10% fetal bovine serum (FBS, Gibco, Life Technologies, Gaithesburg, MD, USA) 1% penicillin, 1% streptomycin (Gibco, Life Technologies, Gaithesburg, MD, USA), and 0.8% hydrocortisone (Sigma-Aldrich, St. Louis, MO, USA). Cells were cultured and kept in incubators, under an atmosphere of 5% CO2 at 37 °C. Trypsinization was used to dissociate cells when cell growth reached the necessary confluence, i.e., 70 to 80% of the total culture flask volume. Cell cultures were tested periodically for mycoplasma contamination and evaluated by using a luminometer, according to the MycoAlert^TM PLUS protocol (Lonza, Walkersville Inc., Walkersville, MD, USA, 2012).
as §1
Statistical analyses were performed, using GraphPad Prism v. 6.03 (GraphPad Software, Inc., San Diego, USA). Data were analyzed according to distribution along the normal Gaussian curve. […] Differences between groups resulting from in vitro assays were evaluated by ANOVA (analysis of variance) testing, followed by the Student–Newman–Keuls test. […]

Another test has as its system PBMC. Kind of test: alamarBlue cytotoxicity assay, PBMC. The conditions noted are these: 72 h of incubation. As for the experimental part: Human peripheral blood mononuclear cells (PBMC) lymphocytes and monocytes) were obtained from the peripheral blood of healthy, non-smoking volunteers aged 25–35 years. None of the volunteers had used any type of drug or medication for at least 15 days prior to collection. Blood collection (5 mL) was performed in heparinized vials by trained professionals at the Laboratory of Tissue Engineering and Immunopharmacology (LETI, IGM-FIOCRUZ, Salvador, Brazil), using sterile disposable syringes. PBMCs were isolated by a standard protocol described by Dias et al. (2018). The institutional review board of the Gonçalo Moniz Institution, Oswaldo Cruz Foundation (IGM-FIOCRUZ), in Salvador, Bahia, Brazil, approved all experimental protocols (No.031019/2013). All participants provided written informed consent prior to participation in the study.
To assess the cytotoxicity of the GLI inhibitor GANT61 (Sigma-Aldrich, St. Louis, MO, USA) in tumor and non-tumor cell lines, an alamarBlue assay (Sigma-Aldrich Chemical Co, St. Louis, MO, USA) was performed after 72 h of exposure to the inhibitor, as described by Ahmed et al., 1994 [46]. Cells were distributed on 96-well plates at a density of 7 × 10^4 cells/mL for adhered cells, and 3 × 10^5 cells/mL for cells in suspension. All tested compounds were dissolved in DMSO, added to wells containing 100 µL of cells in complete medium, and then incubated for 72 h. […] Absorbance was measured at 570 nm (reduced) and 595 nm (oxidized) wavelengths, using a Spectramax 190 plate reader (Molecular Devices; Sunnyvale, CA, USA).
Statistical analyses were performed, using GraphPad Prism v. […] Data were analyzed according to distribution along the normal Gaussian curve. […] Differences between groups resulting from in vitro assays were evaluated by ANOVA (analysis of variance) testing, followed by the Student–Newman–Keuls test. […]

The test system of a further test is HSC3 cells. Put plainly: Trypan blue exclusion cell viability assay. How it is done: To study the effects of GANT61 on HSC3 cell viability, cycle, and death patterns, 4 mL of cellular solution (containing 0.7 × 10^5 cells/mL) was placed on 6-well plates and incubated overnight, to allow adhesion. […] For cell cycle analysis, the effects of GANT61 on HSC3 cells were also evaluated after 12 h of treatment. Negative controls were treated with the vehicle (0.2% DMSO) used to dilute the GLI inhibitor, and 5-fluorouracil (5-FU, 17 μM) was used as a positive control. All experiments were carried out in duplicate and repeated no less than three times. Cell viability was determined by the trypan blue exclusion method, in which 90 μL aliquots were collected at several incubation periods, stained with 10 μL trypan blue, and counted in a Neubauer chamber, under optical microscopy, at 20× magnification (Olympus CX41 Olympus, Tokyo, Japan).

Consider `O=c1[nH]cc(F)c(=O)[nH]1` [5-FU, 5-fluorouracil], for which the IC50 in the test with HCT-116 (Homo sapiens) was 4.07 µM; in the test on CAL27 (Homo sapiens, CAL-27, 72 h of incubation) it was 30.8 µM; in the test with HSC3 it was 16.8 µM; in the test with HSC3 (Homo sapiens, HSC-3, 72 h), 17 µM; in the test on PBMC (Homo sapiens), over 192 µM. For the same compound, the “number of viable cells” value with HSC3 cells (17 µM, all incubation times) is reported as “reduced the number of viable cells”.
`CN(C)c1ccccc1CN1CCCN(Cc2ccccc2N(C)C)C1c1ccncc1` [GANT61]: the IC50 with HCT-116 is over 116 µM; in the test on CAL27 (72 h of incubation), over 116 µM; with HSC3 it was 36 µM and 35.9 µM; in the test with PBMC it was 87.5 µM. In addition, the “viability of HSC3 cells” value in the test on HSC3 cells (18 and 36 µM, 24, 48 and 72 h, vs 0.2% DMSO) is “significantly reduce the viability”.
